Test results reported in patent publication US20230091047A1 (priority 2019, published 2023).

Columns and labels:
in vitro = format: cell-based; conditions: human, HepG2 or HepG2.117 cells, ATPlite, 3-days incubation (not marked with *), mean value
How it was run: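 Luminescent ATP quantitation served as the viability endpoint following a 3- or 4-day incubation with test compounds.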

[1] = test system: HBV (HepG2.117 cell line, inducibly HBV producing); assay: Anti-HBV activity: intracellular HBV DNA by real-time PCR in HepG2.117 cells after 3 days of treatment; format: cell-based, hepatitis B virus; conditions: Hepatitis B virus, HepG2.117, 72 h, HepG2.117 cells, intracellular HBV DNA by real-time PCR, 3 days of treatment, mean value; read-out: EC50 (μM, mean value)
How it was run: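 HepG2.117 cells replicate HBV under Tet-off control, without doxycycline. After induction of replication, cells were treated with serially diluted compound for 3 days, and intracellular HBV DNA was then quantified by real-time PCR with an HBV-specific primer set and probe.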

| Compound | CC50 at 3 days (in vitro) [µM] | EC50 [1] [µM] |
| --- | --- | --- |
| CNC(=O)c1ccc(-n2c(N[C@H](C)c3ccc(F)c(F)c3)nc3c(c2=O)C[C@@H](C)N(C(=O)c2ccc(Cl)c(Cl)c2)C3)cc1 (single isomer, unassigned) [Compound C417a] | 41.8 | 1.22 |
| CNC(=O)c1ccc(-n2c(N[C@@H](C)c3ccc(F)c(F)c3)nc3c(c2=O)C[C@@H](C)N(C(=O)c2ccc(Cl)c(Cl)c2)C3)cc1 (single isomer, unassigned) [Compound C417b] | 7.3 | 0.06 |
| CNC(=O)c1ccc(-n2c(N[C@@H](c3ccc(OC)cc3)C(C)C)nc3c(c2=O)C[C@@H](C)N(C(=O)c2ccc(Cl)c(Cl)c2)C3)cc1 (single isomer, unassigned) [Compound C422a] | 10.5 | 7.77 |
| CNC(=O)c1ccc(-n2c(N[C@H](c3ccc(OC)cc3)C(C)C)nc3c(c2=O)C[C@@H](C)N(C(=O)c2ccc(Cl)c(Cl)c2)C3)cc1 (single isomer, unassigned) [Compound C422b] | 17.2 | 0.28 |
| CNC(=O)c1ccc(-n2c(N[C@H](C)c3cc(C)no3)nc3c(c2=O)C[C@@H](C)N(C(=O)c2ccc(Cl)c(Cl)c2)C3)cc1 (single isomer, unassigned) [Compound C433a] | > 50 | 1.89 |
| CNC(=O)c1ccc(-n2c(N[C@@H](C)c3cc(C)no3)nc3c(c2=O)C[C@@H](C)N(C(=O)c2ccc(Cl)c(Cl)c2)C3)cc1 (single isomer, unassigned) [Compound C433b] | > 50 | 0.73 |
| CNC(=O)c1ccc(-n2c(N[C@H](C)c3nccs3)nc3c(c2=O)C[C@@H](C)N(C(=O)c2ccc(Cl)c(Cl)c2)C3)cc1 (single isomer, unassigned) [Compound C434a] | > 50 | 0.99 |
| CNC(=O)c1ccc(-n2c(N[C@@H](C)c3nccs3)nc3c(c2=O)C[C@@H](C)N(C(=O)c2ccc(Cl)c(Cl)c2)C3)cc1 (single isomer, unassigned) [Compound C434b] | > 50 | 0.84 |
| CNC(=O)c1ccc(-n2c(N[C@H](C)c3ccc(F)c(OC)c3)nc3c(c2=O)C[C@@H](C)N(C(=O)c2ccc(Cl)c(Cl)c2)C3)cc1 (single isomer, unassigned) [Compound C435a] | 26.4 | 0.1 |
| CNC(=O)c1ccc(-n2c(N[C@@H](C)c3ccc(F)c(OC)c3)nc3c(c2=O)C[C@@H](C)N(C(=O)c2ccc(Cl)c(Cl)c2)C3)cc1 (single isomer, unassigned) [Compound C435b] | 45.8 | 1.29 |
| CNC(=O)c1ccc(-n2c(NC[C@H](C)c3cccc(OC)c3)nc3c(c2=O)C[C@@H](C)N(C(=O)c2ccc(Cl)c(Cl)c2)C3)cc1 (single isomer, unassigned) [Compound C436a] | 22.3 | 0.99 |
| CNC(=O)c1ccc(-n2c(NC[C@@H](C)c3cccc(OC)c3)nc3c(c2=O)C[C@@H](C)N(C(=O)c2ccc(Cl)c(Cl)c2)C3)cc1 (single isomer, unassigned) [Compound C436b] | 22.3 | 0.36 |
| CNC(=O)c1ccc(-n2c(N[C@H](CC3CC3)c3ccccc3)nc3c(c2=O)C[C@@H](C)N(C(=O)c2ccc(Cl)c(Cl)c2)C3)cc1 (single isomer, unassigned) [Compound C437a] | 24.6 | 0.16 |
| CNC(=O)c1ccc(-n2c(N[C@@H](CC3CC3)c3ccccc3)nc3c(c2=O)C[C@@H](C)N(C(=O)c2ccc(Cl)c(Cl)c2)C3)cc1 (single isomer, unassigned) [Compound C437b] | 29.4 | 0.91 |
| CNC(=O)c1ccc(-n2c(N[C@H](C)c3ccccc3OC(F)F)nc3c(c2=O)C[C@@H](C)N(C(=O)c2ccc(Cl)c(Cl)c2)C3)cc1 (single isomer, unassigned) [Compound C438a] | 29.2 | 0.73 |
| CNC(=O)c1ccc(-n2c(N[C@@H](C)c3ccccc3OC(F)F)nc3c(c2=O)C[C@@H](C)N(C(=O)c2ccc(Cl)c(Cl)c2)C3)cc1 (single isomer, unassigned) [Compound C438b] | 29.9 | 0.15 |
| CNC(=O)c1ccc(-n2c(N[C@H](C)c3nc[nH]n3)nc3c(c2=O)C[C@@H](C)N(C(=O)c2ccc(Cl)c(Cl)c2)C3)cc1 (single isomer, unassigned) [Compound C439a] | > 50 | > 10 |
| CNC(=O)c1ccc(-n2c(N[C@@H](C)c3nc[nH]n3)nc3c(c2=O)C[C@@H](C)N(C(=O)c2ccc(Cl)c(Cl)c2)C3)cc1 (single isomer, unassigned) [Compound C439b] | > 50 | > 10 |
| CNC(=O)c1ccc(-n2c(N[C@H](C)c3ccc(OC(F)(F)F)cc3)nc3c(c2=O)C[C@@H](C)N(C(=O)c2ccc(Cl)c(Cl)c2)C3)cc1 (single isomer, unassigned) [Compound C440a] | 25 | 5.42 |

| Compound | CC50 at 3 days (in vitro) [µM] | EC50 [1] [µM] |
| --- | --- | --- |
| CNC(=O)c1ccc(-n2c(N[C@@H](C)c3ccc(OC(F)(F)F)cc3)nc3c(c2=O)C[C@@H](C)N(C(=O)c2ccc(Cl)c(Cl)c2)C3)cc1 (single isomer, unassigned) [Compound C440b] | 6.3 | 0.07 |
| CNC(=O)c1ccc(-n2c(N[C@H](C)c3ccc(C#N)cc3)nc3c(c2=O)C[C@@H](C)N(C(=O)c2ccc(Cl)c(Cl)c2)C3)cc1 (single isomer, unassigned) [Compound C441a] | > 50 | 0.22 |
| CNC(=O)c1ccc(-n2c(N[C@@H](C)c3ccc(C#N)cc3)nc3c(c2=O)C[C@@H](C)N(C(=O)c2ccc(Cl)c(Cl)c2)C3)cc1 (single isomer, unassigned) [Compound C441b] | > 50 | 2.75 |
| CNC(=O)c1ccc(-n2c(N[C@H](C)c3ccc4[nH]ccc4c3)nc3c(c2=O)C[C@@H](C)N(C(=O)c2ccc(Cl)c(Cl)c2)C3)cc1 (single isomer, unassigned) [Compound C449a] | > 50 | 0.04 |
| CNC(=O)c1ccc(-n2c(N[C@@H](C)c3ccc4[nH]ccc4c3)nc3c(c2=O)C[C@@H](C)N(C(=O)c2ccc(Cl)c(Cl)c2)C3)cc1 (single isomer, unassigned) [Compound C449b] | 46.4 | 0.2 |
| CNC(=O)c1ccc(-n2c(N[C@H](C)c3ccc4c(ccn4C)c3)nc3c(c2=O)C[C@@H](C)N(C(=O)c2ccc(Cl)c(Cl)c2)C3)cc1 (single isomer, unassigned) [Compound C450a] | > 50 | 0.02 |
| CNC(=O)c1ccc(-n2c(N[C@@H](C)c3ccc4c(ccn4C)c3)nc3c(c2=O)C[C@@H](C)N(C(=O)c2ccc(Cl)c(Cl)c2)C3)cc1 (single isomer, unassigned) [Compound C450b] | > 50 | 0.18 |
| CNC(=O)c1ccc(-n2c(N[C@@H]3C[C@H]3c3ccc(OC)cc3)nc3c(c2=O)C[C@@H](C)N(C(=O)c2ccc(Cl)c(Cl)c2)C3)cc1 (single isomer, unassigned) [Compound C452a] | > 25 | 1.44 |
| CNC(=O)c1ccc(-n2c(N[C@H](C)C(C)(C)C)nc3c(c2=O)C[C@@H](C)N(C(=O)c2ccc(Cl)c(Cl)c2)C3)cc1 (single isomer, unassigned) [Compound C459a] | 31.9 | 0.44 |
| CNC(=O)c1ccc(-n2c(N[C@@H](C)C(C)(C)C)nc3c(c2=O)C[C@@H](C)N(C(=O)c2ccc(Cl)c(Cl)c2)C3)cc1 (single isomer, unassigned) [Compound C459b] | 32.5 | 0.63 |
| CC(=O)Nc1ccc(-n2c(N[C@H](C)c3ccc4[nH]ncc4c3)nc3c(c2=O)C[C@@H](C)N(C(=O)c2ccc(Cl)c(Cl)c2)C3)cc1 (single isomer, unassigned) [Compound C462a] | > 50 | 1.24 |
| CC(=O)Nc1ccc(-n2c(N[C@@H](C)c3ccc4[nH]ncc4c3)nc3c(c2=O)C[C@@H](C)N(C(=O)c2ccc(Cl)c(Cl)c2)C3)cc1 (single isomer, unassigned) [Compound C462b] | > 50 | 0.37 |
| C[C@@H]1Cc2c(nc(N[C@H](C)c3ccc(OC(F)(F)F)cc3)n(-c3ccc(-n4cccn4)cc3)c2=O)CN1C(=O)c1ccc(Cl)c(Cl)c1 (single isomer, unassigned) [Compound C463a] | > 50 | 0.24 |
| C[C@H](Nc1nc2c(c(=O)n1-c1ccc(-n3cccn3)cc1)C[C@@H](C)N(C(=O)c1ccc(Cl)c(Cl)c1)C2)c1ccc(OC(F)(F)F)cc1 (single isomer, unassigned) [Compound C463b] | > 50 | 7.21 |
| CNC(=O)c1ccc(-n2c(N[C@@H]3CCOc4ccccc43)nc3c(c2=O)C[C@@H](C)N(C(=O)c2ccc(Cl)c(Cl)c2)C3)cc1 (single isomer, unassigned) [Compound C526a] | > 50 | 0.28 |
| CNC(=O)c1ccc(-n2c(N[C@H]3CCOc4ccccc43)nc3c(c2=O)C[C@@H](C)N(C(=O)c2ccc(Cl)c(Cl)c2)C3)cc1 (single isomer, unassigned) [Compound C526b] | 16.3 | 5.42 |
| CNC(=O)c1ccc(-n2c(N[C@@H]3CCOc4cc(OC)ccc43)nc3c(c2=O)C[C@@H](C)N(C(=O)c2ccc(Cl)c(Cl)c2)C3)cc1 (single isomer, unassigned) [Compound C527a] | > 50 | 0.39 |
| CNC(=O)c1ccc(-n2c(N[C@H]3CCOc4cc(OC)ccc43)nc3c(c2=O)C[C@@H](C)N(C(=O)c2ccc(Cl)c(Cl)c2)C3)cc1 (single isomer, unassigned) [Compound C527b] | > 50 | 0.65 |
